Results taken from patent US20030180355A1, “Combination therapy for hypertension” (priority 2001, published 2003).
Marks after values point to notes of the source that are not given here.

Key:
[1] = test system: uninephrectomized anesthetized rats; experiment: Model of acute angiotensin-mediated renal hypertension in anesthetized rats; format: in vivo, Sprague-Dawley rats; details: lercanidipine 10 μg/kg i.v.
Experimental: Male Sprague-Dawley rats, weighing 250-300 g, were anaesthetized with pentobarbital sodium (35 mg/kg, i.p.) and placed on a thermic blanket. The temperature was maintained at 37° C. with a thermoregulator via a rectal probe. The animals were tracheotomized to facilitate spontaneous breathing. A polyethylene catheter was placed in the left jugular vein to allow for infusion of pentobarbital sodium to maintain anesthesia. The left femoral vein and artery were cannulated with polyethylene catheters to allow drugs administration and to monitor blood pressure, respectively.
The animals then underwent a left nephrectomy by excising the left kidney via a flank incision. The right kidney and renal vein, artery and ureter then were exposed via a right retroperitoneal incision, under a dissecting microscope. Silk threads were placed around both vessels and ureter. The cavity was then covered with Vaseline oil. See Recordati, et al. 2000, J. Hypertension, 18:1277-1287.
ECG (lead II) was recorded by means of subcutaneous electrodes. After 30-60 minutes of basal recordings of arterial blood pressure and heart rate the threads around the renal vessels and ureter were tied close to the renal hilum to induce complete renal ischemia of the right kidney. After 2 hours of ischemia (designed as “120” in Tables 1-4), the threads were removed to allow renal reperfusion and urine output. The reopening of the renal hilum and restoration of renal circulation, induced an increase in blood pressure that peaked 5-10 minutes and lasted about 60 minutes. Drugs (vehicle, enalapril (100 μg/kg), lercanidipine (10 μg/kg), or both lercanidipine (10 μg/kg) and enalapril (100 μg/kg)) were administered intravenously at 5 minutes after reperfusion began (defined as 125 in Tables 4-7).
Statistical analysis was performed during the reperfusion time (time 125-180 minutes). To evaluate the statistical differences among the treatment groups, data were analyzed using a three-way ANOVA (analysis of variance) with repeated measures on factor time and pre-planned multiple comparisons. Statistical analysis was performed by means of general linear model procedure (GLM) with SAS software version 6.12.

[2] = test system: patients with a sitting diastolic blood pressure (SDBP) of 95-109 mm Hg; experiment: Clinical study, factorial design, randomized double-blind placebo-controlled, 8 weeks; format: in vivo, human; details: for Therapeutic response rate, study participants with SDBP < 90 mm Hg / Change in SSBP / Change in SDBP: 8 weeks; for Change in SSBP / Change in SDBP: vs baseline, response surface analysis
Experimental: A multi-center, randomized, double-blind, placebo-controlled, parallel groups, factorial design trial was conducted. After a 14-day (±3 days) screening/washout period during which patients were washed from ongoing antihypertensive therapy, eligible patients with a sitting diastolic blood pressure (SDBP) of 95-109 mm Hg, entered the 28 day (±3 days) single-blind placebo run-in period during which they received placebo once-daily. Patients who were not responsive to this treatment and whose SDBP was 95-109 mm Hg, were randomized into an eight-week double-blind treatment phase. Baseline measurements were taken on Study Day 0 with post-therapy assessments during the double blind period scheduled on Study Days 14, 28, 42, and 56. Laboratory tests were conducted prior to the beginning of the screening period and on study Day 0 as well as at the end of the study.
The number of patients screened was greater than 800; 798 entered the 4-week single-blind placebo period, and 663 eligible patients were randomized into the 8-week double-blind treatment. The number in parenthesis represents the number of patients in each group available for efficacy evaluation.
The patients were randomized into one of the above noted 12 treatment groups. Tablets of lercanidipine (5 and 10 mg) and enalapril (2.5 mg) were encapsulated in the appropriate doses, in order to assure double-blind conditions. All tablets were of commercial origin except for the 5 mg lercanidipine, which were prepared in accordance with Table 3.
Patients were instructed to take one capsule of the study medication once daily 15 minutes before breakfast, between 6 and 10 am. All medications were to be withheld on mornings of clinic visits until after blood pressure evaluations at 22-26 hours following the previous day's dose of study medication.
1. Trough (Minimum) (24±2 hours post-dose) sitting diastolic blood pressure (SDBP)
2. Trough (24±2 hours post-dose) sitting systolic blood pressure (SSBP)
4. Percent of patients with SDBP<90 mm Hg
The primary efficacy variable was the change from baseline to mean trough SDBP after 8 weeks of double-blind treatment. The analysis was performed in an “intent-to-treat” fashion, including all randomized patients who had received at least one dose of double-blind treatment, and had at least one post-baseline SDBP measurement 18-48 hours post-dose. In case of premature withdrawal from the study the last observation carried forward (LOCF) algorithm was applied (“end point analysis”).
The overall treatment comparison was performed using an analysis of covariance (ANCOVA) with treatment and centers as main effects and baseline value as covariate.
An additional ANOVA was performed using the factorial model in order to test for the interaction of lercanidipine dose and enalapril dose at each time-point.
The number of patients who discontinued the study because of an adverse event is reported in parenthesis.

[3] = following oral dosing; cited from earlier work
[4] = time 120 min, end of ischemia, before drug
[5] = time 125 min, reperfusion, before drug
[6] = time 130 min, drug given at 125 min
[7] = time 135 min, drug given at 125 min
[8] = time 150 min, drug given at 125 min
[9] = time 165 min, drug given at 125 min
[10] = time 180 min, drug given at 125 min
[11] = lercanidipine 5 mg once daily, 54 patients randomized
[12] = lercanidipine 10 mg once daily, 57 patients randomized
[13] = lercanidipine 20 mg once daily, 54 patients randomized

COC(=O)C1=C(C)NC(C)=C(C(=O)OC(C)(C)CN(C)CCC(c2ccccc2)c2ccccc2)C1c1cccc([N+](=O)[O-])c1 (stereo not drawn) [lercanidipine, methyl 1,1,N-trimethyl-N-(3,3-diphenylpropyl)-2-aminoethyl 1,4-dihydro-2,6-dimethyl-4-(3-nitrophenyl)pyridine-3,5-dicarboxylate]
DBP (diastolic blood pressure) ([1]; time 0 min, basal): 69.8 ± 2.5 mmHg | MBP (mean blood pressure) ([1]; time 0 min, basal): 83.3 ± 2.8 mmHg | SBP (systolic blood pressure) ([1]; time 0 min, basal): 110.4 ± 3.6 mmHg | DBP (diastolic blood pressure) [1, 4]: 70.6 ± 5.4 mmHg | MBP (mean blood pressure) [1, 4]: 85.3 ± 5.7 mmHg | SBP (systolic blood pressure) [1, 4]: 114.5 ± 6.5 mmHg | DBP (diastolic blood pressure) [1, 5]: 119.3 ± 5.2 mmHg | MBP (mean blood pressure) [1, 5]: 135.4 ± 6.4 mmHg | SBP (systolic blood pressure) [1, 5]: 167.6 ± 8.9 mmHg | DBP (diastolic blood pressure) [1, 6]: 97.1 ± 3.1 c mmHg | MBP (mean blood pressure) [1, 6]: 111.5 ± 3.2 c mmHg | SBP (systolic blood pressure) [1, 6]: 140.4 ± 3.8 b mmHg | DBP (diastolic blood pressure) [1, 7]: 93.1 ± 4.0 c mmHg | MBP (mean blood pressure) [1, 7]: 108.9 ± 3.7 c mmHg | SBP (systolic blood pressure) [1, 7]: 140.5 ± 3.7 a mmHg | DBP (diastolic blood pressure) [1, 8]: 89.5 ± 4.3 b mmHg | MBP (mean blood pressure) [1, 8]: 106.1 ± 3.9 b mmHg | SBP (systolic blood pressure) [1, 8]: 139.4 ± 3.7 mmHg | DBP (diastolic blood pressure) [1, 9]: 83.5 ± 4.6 a mmHg | MBP (mean blood pressure) [1, 9]: 99.7 ± 4.7 mmHg | SBP (systolic blood pressure) [1, 9]: 132.0 ± 5.3 mmHg | DBP (diastolic blood pressure) [1, 10]: 78.8 ± 4.0 mmHg | MBP (mean blood pressure) [1, 10]: 95.2 ± 4.1 mmHg | SBP (systolic blood pressure) [1, 10]: 128.1 ± 4.7 mmHg | Therapeutic response rate, study participants with SDBP < 90 mm Hg ([2]; lercanidipine 5 mg once daily): 32% | Change in SSBP ([2]; lercanidipine 5 mg once daily, confidence interval in parentheses): −9.5 (7.8-11.1) | number of patients who discontinued the study because of an adverse event [2, 11]: 3 | number of patients with any adverse events related to study drug [2, 11]: 8 | Therapeutic response rate, study participants with SDBP < 90 mm Hg ([2]; lercanidipine 10 mg once daily): 40% | Change in SDBP ([2]; lercanidipine 10 mg once daily): −8.2 | Change in SSBP ([2]; lercanidipine 10 mg once daily, confidence interval in parentheses): −10.8 (9.1-12.4) | number of patients who discontinued the study because of an adverse event [2, 12]: 1 | number of patients with any adverse events related to study drug [2, 12]: 10 | Therapeutic response rate, study participants with SDBP < 90 mm Hg ([2]; lercanidipine 20 mg once daily): 59%* | Change in SDBP ([2]; lercanidipine 20 mg once daily): −9.9* | Change in SSBP ([2]; lercanidipine 20 mg once daily, in mm Hg): −13.4* (11.1-15.6) | number of patients who discontinued the study because of an adverse event [2, 13]: 3 | number of patients with any adverse events related to study drug [2, 13]: 10 | time of peak plasma levels [3]: 2 to 3 h
